# Results from patent US20260356821A1, “SOLID FORMS OF AN ERBB INHIBITOR” (Black Diamond Therapeutics, Inc., priority 2023, published 2026).
# “Also recorded” adds a separate entry of the source.
# Legend:
# Assay type in all cases: physicochemical
# [1] = Bulk Stability (solid state; HPLC purity, color, XRPD)
# Experimental: (§1) X-ray Powder Diffractometer (XRPD): XRPD analysis was performed using a Bruker D8 Advance X-ray powder diffractometer. Analysis was performed using parameters as set forth below.
# (§2) High Performance Liquid Chromatograph (HPLC): HPLC analysis was performed using SHIMADZU LC-20AD/Agilent 1260 infinity II Binary Pump. Analysis was performed using parameters as set forth below.
# Bulk Stability: Form M was evaluated for bulk stability studies. The bulk stability study was conducted in 3 conditions including 25 °C/92% RH in an open container, 40 °C/75% RH in an open container and 60 °C in a tight container for 1 week, 2 weeks and 4 weeks, respectively.
# [2] = Solubility in aqueous media, 37 °C
# Experimental: as §1, §2
# Solubility: 6.39 mg of the L-malate salt Form M (equal to 4 mg free base) was weighed into an 8 mL vial. 2 mL of aqueous media was added, respectively. The suspension was stirred at 37 °C with 400 rpm for 2 h and 24 h. The suspension was taken out after 2 h and 24 h and then centrifuged at 14,000 rpm for 5 min. The supernatant was analyzed by HPLC. The pH of the supernatant was tested. The solids obtained (wet cakes) were characterized by XRPD. Table 3 summarizes the observation of the solubility study.
# Hygroscopicity by DVS = settings: 25 °C
# Experimental: as §1
# Dynamic Vapor Sorption (DVS): DVS analysis was performed using Intrinsic. Analysis was performed using parameters as set forth below.
# Hygroscopicity: The hygroscopicity for Form M was examined by DVS.
# [3] = Crystallinity after drying under vacuum
# Experimental: as §1
# To explore further optimization of the crystallinity of the salt, about 25 mg of dry cake were re-equilibrated in 7 different solvents for 3 days. Solids obtained were analyzed by XRPD and 1H-NMR. […]
# [4] = 25 °C/92% RH, open container, 1 week
# [5] = 40 °C/75% RH, open container, 1 week
# [6] = 40 °C/75% RH, open container, 2 weeks
# [7] = 40 °C/75% RH, open container, 4 weeks
# [8] = 60 °C, tight container, 2 weeks
smiles,measurement,setting,value
"CN1C[C@H]2C[C@@]2(C#Cc2cc3ncnc(Nc4cccc(Cl)c4F)c3cc2NC(=O)/C=C/CN2CCOCC2)C1 [Form M, (E)-N-(4-((3-chloro-2-fluorophenyl)amino)-7-(((1R,5S)-3-methyl-3-azabicyclo[3.1.0]hexan-1-yl)ethynyl)quinazolin-6-yl)-4-morpholinobut-2-enamide]",Bulk (XRPD),[1]; [4],No form change (Agglomeration)
same,Color,[1]; [4],No change of color
same,Color,"[1]; 25 °C/92% RH, open container, 2 weeks",No change of color
same,Bulk (XRPD),"[1]; 25 °C/92% RH, open container, 2 weeks, no form change after dried under ambient condition",Sticky sample;; also recorded: No form change after dried under ambient
same,Color,"[1]; 25 °C/92% RH, open container, 4 weeks",No change of color
same,Bulk (XRPD),"[1]; 25 °C/92% RH, open container, 4 weeks, no form change after dried under ambient condition",Sticky sample;; also recorded: No form change after dried under ambient
same,Bulk (XRPD),[1]; [5],No form change
same,Color,[1]; [5],No change of color
same,Bulk (XRPD),[1]; [6],No form change
same,Color,[1]; [6],No change of color
same,Bulk (XRPD),[1]; [7],No form change
same,Color,[1]; [7],No change of color
same,Bulk (XRPD),"[1]; 60 °C, tight container, 1 week",No form change (Crystallinity decreased)
same,Color,"[1]; 60 °C, tight container, 1 week",No change of color
same,Bulk (XRPD),[1]; [8],No form change (Crystallinity decreased)
same,Color,[1]; [8],No change of color
same,Color,"[1]; 60 °C, tight container, 4 weeks",No change of color
same,Bulk (XRPD),"[1]; 60 °C, tight container, 4 weeks, (Crystallinity decreased)",No form change; also recorded: (Crystallinity decreased)
same,Initial Purity by HPLC,"[1]; initial, before storage",94.0%
same,Solubility,"[2]; FaSSIF-v1, pH 6.5, 37 °C, 2 h",Degradation
same,pH of the supernatant,"[2]; FaSSIF-v1, pH 6.5, 37 °C, 2 h",pH 4.9
same,Solubility,"[2]; FaSSIF-v1, pH 6.5, 37 °C, 24 h",Degradation
same,pH of the supernatant,"[2]; FaSSIF-v1, pH 6.5, 37 °C, 24 h",pH 4.8
same,Solubility,"[2]; FeSSIF-v1, pH 5.0, 37 °C, 2 h",Degradation
same,pH of the supernatant,"[2]; FeSSIF-v1, pH 5.0, 37 °C, 2 h",pH 4.9
same,Solubility,"[2]; FeSSIF-v1, pH 5.0, 37 °C, 24 h",Degradation
same,pH of the supernatant,"[2]; FeSSIF-v1, pH 5.0, 37 °C, 24 h",pH 4.8
same,pH of the supernatant,"[2]; SGF, pH 2.0, 37 °C, 2 h",pH 2.8
same,solubility at 2 h,"[2]; SGF, pH 2.0, 37 °C, 2 h",> 2000 µg/mL
same,pH of the supernatant,"[2]; SGF, pH 2.0, 37 °C, 24 h",pH 2.6
same,solubility at 24 h,"[2]; SGF, pH 2.0, 37 °C, 24 h",> 2000 µg/mL
same,pH of the supernatant,"[2]; Water, 37 °C, 2 h",pH 4.3
same,solubility at 2 h,"[2]; Water, 37 °C, 2 h",1490 µg/mL
same,pH of the supernatant,"[2]; Water, 37 °C, 24 h",pH 4.3
same,solubility at 24 h,"[2]; Water, 37 °C, 24 h",1780 µg/mL
same,solubility at 2 h,"[2]; aqueous buffer, pH 4.5 (50 mM) acetate buffer, 37 °C, 2 h",> 2000 µg/mL
same,solubility at 24 h,"[2]; aqueous buffer, pH 4.5 (50 mM) acetate buffer, 37 °C, 24 h",> 2000 µg/mL
same,solubility at 2 h,"[2]; aqueous buffer, pH 6.8 (50 mM) phosphate buffer, 37 °C, 2 h",183 µg/mL
same,solubility at 24 h,"[2]; aqueous buffer, pH 6.8 (50 mM) phosphate buffer, 37 °C, 24 h",189 µg/mL
same,pH of the supernatant,"[2]; pH 1.0 (0.1N HCl), 37 °C, 2 h",pH 0.9
same,solubility at 2 h,"[2]; pH 1.0 (0.1N HCl), 37 °C, 2 h",> 2000 µg/mL
same,pH of the supernatant,"[2]; pH 1.0 (0.1N HCl), 37 °C, 24 h",pH 0.8
same,solubility at 24 h,"[2]; pH 1.0 (0.1N HCl), 37 °C, 24 h",> 2000 µg/mL
same,pH of the supernatant,"[2]; pH 4.5 (50 mM) acetate buffer, 37 °C, 2 h, marked *",pH 4.5*
same,pH of the supernatant,"[2]; pH 4.5 (50 mM) acetate buffer, 37 °C, 24 h",pH 4.4
same,pH of the supernatant,"[2]; pH 6.8 (50 mM) phosphate buffer, 37 °C, 2 h",pH 6.2
same,pH of the supernatant,"[2]; pH 6.8 (50 mM) phosphate buffer, 37 °C, 24 h",pH 6.3
same,Desorp. (%),"Hygroscopicity by DVS; 0% RH, first desorption",0.0%
same,Sorp. (%),"Hygroscopicity by DVS; 0% RH, second sorption",0.0%
same,Desorp. (%),"Hygroscopicity by DVS; 10% RH, first desorption",1.4%
same,Sorp. (%),"Hygroscopicity by DVS; 10% RH, second sorption",0.6%
same,Desorp. (%),"Hygroscopicity by DVS; 20% RH, first desorption",2.5%
same,Sorp. (%),"Hygroscopicity by DVS; 20% RH, second sorption",1.4%
same,Desorp. (%),"Hygroscopicity by DVS; 30% RH, first desorption",3.6%
same,Sorp. (%),"Hygroscopicity by DVS; 30% RH, second sorption",2.2%
same,Desorp. (%),"Hygroscopicity by DVS; 40% RH, first desorption",5.0%
same,Sorp. (%),"Hygroscopicity by DVS; 40% RH, first sorption",4.1%
same,Desorp. (%),"Hygroscopicity by DVS; 40% RH, second desorption",5.2%
same,Sorp. (%),"Hygroscopicity by DVS; 40% RH, second sorption",3.1%
same,Desorp. (%),"Hygroscopicity by DVS; 50% RH, first desorption",6.1%
same,Sorp. (%),"Hygroscopicity by DVS; 50% RH, first sorption",4.4%
same,Desorp. (%),"Hygroscopicity by DVS; 50% RH, second desorption",6.4%
same,Sorp. (%),"Hygroscopicity by DVS; 50% RH, second sorption",4.2%
same,Desorp. (%),"Hygroscopicity by DVS; 60% RH, first desorption",7.4%
same,Sorp. (%),"Hygroscopicity by DVS; 60% RH, first sorption",4.9%
same,Desorp. (%),"Hygroscopicity by DVS; 60% RH, second desorption",7.4%
same,Sorp. (%),"Hygroscopicity by DVS; 60% RH, second sorption",5.6%
same,Desorp. (%),"Hygroscopicity by DVS; 70% RH, first desorption",9.3%
same,Sorp. (%),"Hygroscopicity by DVS; 70% RH, first sorption",5.6%
same,Desorp. (%),"Hygroscopicity by DVS; 70% RH, second desorption",8.7%
same,Sorp. (%),"Hygroscopicity by DVS; 70% RH, second sorption",7.5%
same,Desorp. (%),"Hygroscopicity by DVS; 80% RH, first desorption",13.5%
same,Sorp. (%),"Hygroscopicity by DVS; 80% RH, first sorption",6.9%
same,Desorp. (%),"Hygroscopicity by DVS; 80% RH, second desorption",11.4%
same,Sorp. (%),"Hygroscopicity by DVS; 80% RH, second sorption",9.7%
same,Desorp. (%),"Hygroscopicity by DVS; 90% RH, first desorption",29.5%
same,Sorp. (%),"Hygroscopicity by DVS; 90% RH, first sorption",15.3%
same,Desorp. (%),"Hygroscopicity by DVS; 90% RH, second desorption",20.9%
same,Sorp. (%),"Hygroscopicity by DVS; 90% RH, second sorption",15.8%
same,Desorp. (%),"Hygroscopicity by DVS; 95% RH, first desorption",41.2%
same,Sorp. (%),"Hygroscopicity by DVS; 95% RH, first sorption",41.2%
same,Desorp. (%),"Hygroscopicity by DVS; 95% RH, second desorption",31.5%
same,Sorp. (%),"Hygroscopicity by DVS; 95% RH, second sorption",31.5%
same,XRPD after DVS test,Hygroscopicity by DVS; after cycle 40-95-0-95-40% RH,No form change
same,DVS,Hygroscopicity by DVS; at 70% RH,1.5% at 70% RH
same,DVS,Hygroscopicity by DVS; at 95% RH,37.1% at 95% RH
same,crystallinity after drying,[3],crystallinity decreased
